# Where a name gives a salt, the structure may show the parent alone.
# Key:
# Conditions in all cases: 72 h
# Vero E6 [1] = test: drug sensitivity score (DSS) for viability; higher = more toxic; extreme values may be limits of the assay
# Calu-3 [2] = test: as above
# HepG2 [3] = test: as above
# Caco-2 [4] = test: as above
# Vero E6 [5] = test: relative viability EC50 (midpoint between 100% and the lowest measured viability); higher = less toxic
# Calu-3 [6] = test: as above
# HepG2 [7] = test: as above
# Caco-2 [8] = test: as above
# Vero E6 [9] = test: cell viability relative to DMSO; higher = less toxic
# Calu-3 [10] = test: as above
# HepG2 [11] = test: as above
# Caco-2 [12] = test: as above
# U2OS [13] = test: drug sensitivity score (DSS) for viability; higher = more toxic; extreme values may be limits of the assay
# U2OS [14] = test: relative viability EC50 (midpoint between 100% and the lowest measured viability); higher = less toxic
# U2OS [15] = test: cell viability relative to DMSO; higher = less toxic
SMILES,drug sensitivity score (Vero E6 [1]),drug sensitivity score (Calu-3 [2]),drug sensitivity score (HepG2 [3]),drug sensitivity score (Caco-2 [4]),relative viability EC50 (Vero E6 [5]) [µM],relative viability EC50 (Calu-3 [6]) [µM],relative viability EC50 (HepG2 [7]) [µM],relative viability EC50 (Caco-2 [8]) [µM],cell viability (Vero E6 [9]; 1 nM) [%],cell viability (Vero E6 [9]; 10 nM) [%],cell viability (Vero E6 [9]; 100 nM) [%],cell viability (Vero E6 [9]; 1000 nM) [%],cell viability (Vero E6 [9]; 10000 nM) [%],cell viability (Calu-3 [10]; 1 nM) [%],cell viability (Calu-3 [10]; 10 nM) [%],cell viability (Calu-3 [10]; 100 nM) [%],cell viability (Calu-3 [10]; 1000 nM) [%],cell viability (Calu-3 [10]; 10000 nM) [%],cell viability (HepG2 [11]; 1 nM) [%],cell viability (HepG2 [11]; 10 nM) [%],cell viability (HepG2 [11]; 100 nM) [%],cell viability (HepG2 [11]; 1000 nM) [%],cell viability (HepG2 [11]; 10000 nM) [%],cell viability (Caco-2 [12]; 1 nM) [%],cell viability (Caco-2 [12]; 10 nM) [%],cell viability (Caco-2 [12]; 100 nM) [%],cell viability (Caco-2 [12]; 1000 nM) [%],cell viability (Caco-2 [12]; 10000 nM) [%],drug sensitivity score (U2OS [13]),relative viability EC50 (U2OS [14]) [µM],cell viability (U2OS [15]; 1 nM) [%],cell viability (U2OS [15]; 10 nM) [%],cell viability (U2OS [15]; 100 nM) [%],cell viability (U2OS [15]; 1000 nM) [%],cell viability (U2OS [15]; 10000 nM) [%]
COC(=O)[C@H](NC(=O)c1cc(-c2ccccc2)nc2ccccc12)c1ccccc1,0,0,0,0,> 10,> 10,> 10,> 10,92.6,91.3,91.5,92.7,100,104,93,101,102,103,91.4,99.6,96.4,89.6,103,110,94.9,106,104,109,,,,,,,
COc1cc(OC)c(NC(=O)Nc2cc(C)on2)cc1Cl,0,0,0,0,> 10,> 10,> 10,> 10,99,104,102,104,96.8,86.7,98.4,97.2,95.1,90,102,108,97,110,103,98.9,102,90.3,96.3,90,0,> 10,97,99.9,97.2,98.4,97.4
COc1cc2c(cc1OC)-c1cc3nc4ccccc4nc3n1C(C)(C)C2,0,0,1.8,0,> 10,> 10,> 10,> 10,108,102,104,92.2,107,104,103,99.8,95.2,97.3,98.7,83.6,89.7,95.1,76.2,97.9,103,106,99.1,89.1,,,,,,,
COc1ccc(S(=O)(=O)Nc2cc(Cl)cc(Cl)c2OC)cc1N1CCNCC1,0,0,0,0,> 10,> 10,> 10,> 10,102,103,99.1,98.7,91.2,99,103,99.2,106,111,98.9,90.2,103,98.7,102,102,97.9,97.9,92.9,94.7,0,> 10,109,98,105,96.3,100
C[C@@H](Oc1ccc2[nH]nc(/C=C/c3cnn(CCO)c3)c2c1)c1c(Cl)cncc1Cl,8.9,7.2,12.1,6.1,1.35,1.26,0.617,1.61,95.3,92.4,98.6,71.9,12.7,101,99.9,98.6,75.5,31.8,108,102,85.5,46.4,10.6,87.3,99.5,91.5,83.3,33.1,14,0.582,94.3,94.3,91,33.5,0.2
Nc1ncnc2c1ncn2C1CCCO1 (stereo not drawn),0,0,0,0,> 10,> 10,> 10,> 10,95.6,102,101,98.8,100,106,102,94.1,102,102,98.7,94.8,103,93.9,103,104,107,99.7,90.2,91.7,0,> 10,97.4,98.9,94.8,99.4,98.9
CN(C)CC[C@H](CSc1ccccc1)Nc1ccc(S(=O)(=O)NC(=O)c2ccc(N3CCN(Cc4ccccc4-c4ccc(Cl)cc4)CC3)cc2)cc1[N+](=O)[O-] [ABT-737],0,4,0,0.3,> 10,2.52,> 10,> 10,97.2,98.6,95.3,96,95.1,115,99.1,114,95.2,39.3,109,111,104,95.8,93,104,92.4,105,101,83.8,,,,,,,
COCc1c(-c2ccc(NC(=O)Nc3cc(C(F)(F)F)ccc3F)c(F)c2)c2c(N)ncnn2c1CN1CCOCC1 [ACTB-1003],3.7,5.2,16.2,6.8,3.57,,0.386,1.35,95.7,102,101,106,24.8,101,87.5,93.9,72.1,65.2,110,104,91.1,18.1,2.1,105,99,102,78.4,32.9,7.8,1.34,97.6,97.1,101,75,23.3
CCCC(C)(COC(N)=O)COC(=O)NC(C)C (stereo not drawn) [CARISOPRODOL],0,0,,0,> 10,> 10,,> 10,106,101,98.8,105,101,108,88.2,93.2,85.7,98.1,,,,,,96.1,103,97.6,101,104,0,> 10,102,97.7,101,102,104
N[C@@H](C(=O)O)c1cc(O)ccc1Cl [CHPG],0,,,0,> 10,,,> 10,94.9,93.4,92.2,94.6,108,,,,,,,,,,,94.2,91.7,94.8,98.7,96,0,> 10,97.6,99,98.5,104,103
CC(C)c1ccc(NC(=O)c2cccs2)c(-c2nc3ccccc3[nH]c2=O)c1 [ML281],0,,0,0,> 10,,> 10,> 10,96.3,101,97,95.5,96.1,,,,,,103,106,105,95.7,102,102,102,96.5,102,93.5,0,> 10,111,105,101,102,98.3
CCCn1c(=O)[nH]c2nc(-c3ccc(S(=O)(=O)O)cc3)[nH]c2c1=O [PSB-1115],0,0,,0,> 10,> 10,,> 10,106,105,107,103,95.5,112,104,100,110,94.4,,,,,,99.4,94.6,111,105,95.4,0,> 10,99.9,109,98.2,108,102
CC[C@H]1OC(=O)C[C@@H](O)[C@H](C)[C@@H](O[C@@H]2O[C@H](C)[C@@H](O[C@H]3C[C@@](C)(O)[C@@H](O)[C@H](C)O3)[C@H](N(C)C)[C@H]2O)[C@@H](CC=O)C[C@@H](C)C(=O)/C=C/C(C)=C/[C@@H]1CO[C@@H]1O[C@H](C)[C@@H](O)[C@@H](OC)[C@H]1OC [TYLOSIN TARTRATE],5.2,2.1,4,8.9,2.7,,2.44,1.03,102,102,98.7,95.2,18.9,104,108,104,91,74.6,99,101,95.2,94.8,40.7,101,96.4,109,63,23.4,8.7,0.566,102,97.3,96.9,56.6,39.9
CC(C)N1CCN(c2ccc(C(=O)c3c(-c4ccc(O)cc4)sc4cc(O)ccc34)cc2)CC1 [Y-134],0.3,1,0.9,0.6,> 10,,,> 10,101,104,102,103,82.8,96,96.2,101,102,72.4,113,101,94,104,72.3,99.5,102,100,98.7,81.4,0,> 10,102,98.5,99,97.1,91.8
O=C(O)CCCN1CCC(O[C@@H](c2ccc(Cl)cc2)c2ccccn2)CC1 [bepotastine],0,0,0,0,> 10,> 10,> 10,> 10,93.2,98.3,90.2,95.8,105,97,106,94.2,93.8,113,98.7,113,99,102,113,91.3,92.1,99.4,93.4,107,,,,,,,

# From the supplement of paper PMC13380429
